Source: ChEMBL document CHEMBL1125709, “Substituent effect on the stereochemistry of H2-receptor antagonists of the phenylformamidine series. A conformation-dependent mode of interaction with the H2 receptor” (J Med Chem, 1991)

Target: Histamine H2 receptor (Cavia porcellus, UniProt P47747)
Test: Histamine H2 receptor antagonism on the right atrium of the guinea pig
Type: functional, tissue-based, Cardiac atrium
Conditions: read-out: pA2 (converted)

Histamine H2 receptor, sequence (P47747 whole entry): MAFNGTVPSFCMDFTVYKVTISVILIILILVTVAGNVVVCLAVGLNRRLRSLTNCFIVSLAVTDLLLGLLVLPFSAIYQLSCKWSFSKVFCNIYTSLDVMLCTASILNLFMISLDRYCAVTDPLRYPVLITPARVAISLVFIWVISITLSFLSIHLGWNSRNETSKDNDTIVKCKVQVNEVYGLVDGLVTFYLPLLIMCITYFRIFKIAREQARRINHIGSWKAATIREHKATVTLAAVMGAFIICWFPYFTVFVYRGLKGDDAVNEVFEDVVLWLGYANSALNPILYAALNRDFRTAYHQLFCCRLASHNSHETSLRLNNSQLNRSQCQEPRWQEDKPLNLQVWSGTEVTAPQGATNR

| Structure (SMILES) | Kb [nM] |
| --- | --- |
| CCC(CC)N/C=N/c1ccc(-c2c[nH]cn2)cc1 | 31.6 |
| CCC(C)(C)N/C=N/c1ccc(-c2c[nH]cn2)cc1 | 7.59 |
| CCCCN/C=N/c1ccc(-c2c[nH]cn2)cc1 | 11.2 |
| CN/C=N/c1ccc(-c2c[nH]cn2)cc1 | 1200 |

The remaining lines, values ahead:

| Kb [nM] | Structure (SMILES) |
| --- | --- |
| 28.2 | CC(C)/N=C/Nc1ccc(-c2c[nH]cn2)cc1 |
| 14.1 | CCC(C)N/C=N/c1ccc(-c2c[nH]cn2)cc1 (centres undefined) |
| 11.2 | CC(C)(C)/N=C/Nc1ccc(-c2c[nH]cn2)cc1 |
| 42.7 | CC/N=C/Nc1ccc(-c2c[nH]cn2)cc1 |
| 5.25 | CC(C)CN/C=N/c1ccc(-c2c[nH]cn2)cc1 |
